Test results: article PMC5974403, “The novel histone de acetylase 6 inhibitor, MPT0G211, ameliorates tau phosphorylation and cognitive deficits in an Alzheimer’s disease model” (Cell Death & Disease, 2018)
Peptide text beside a SMILES is read from it. * marks the point of attachment. Cbz = O=C(OCc1ccccc1)*

Columns and labels:
Neuro-2a cells [1] = experiment: Western blot of acetyl-α-tubulin and acetyl-histone, Neuro-2a cells; assay type: cell-based, mouse; conditions: 0.1 to 1 μM, 24 h
Procedure: (§1) Cell viabilities were determined by MTT assay. The results represent the mean ± SEM of three independent experiments; *p < 0.05, **p < 0.01 and ***p < 0.001 compared with controls TEXT PRINTED IN THE PICTURE: (A) no label printed: M.W. 293.32
(§2) Cells (1 × 10^6) were incubated for 10 min at 4 °C in lysis buffer (20 mM HEPES, pH 7.4, 2 mM EGTA, 50 mM β-glycerophosphate, 0.1% Triton X-100, 10% glycerol, 1 mM dithiothreitol, 1 μg/mL leupeptin, 5 μg/mL aprotinin, 1 mM phenylmethylsulfonyl fluoride, and 1 mM sodium orthovanadate), scraped from the plate, incubated on ice for 10 min, and centrifuged at 17,000 × g for 30 min at 4 °C. Protein samples (30 μg) were electrophoresed through sodium dodecyl sulfate-polyacrylamide gels (SDS-PAGE) and transferred onto a nitrocellulose membrane, which was then blocked by incubation for 30 min at room temperature with 5% fat-free milk in PBS. Immunoblotting was performed by overnight incubation at 4 °C with primary antibodies in PBS, followed by incubation for 1 h at room temperature with HRP-conjugated secondary antibodies. Bound antibodies were measured using ECL reagent (T-Pro Biotechnology, New Taipei City, Taiwan), and the membrane was placed on a photographic film. Cell lysates (30 μg) were incubated with antibodies (1 μg each) and protein A/G agarose beads overnight at 4 °C. The precipitated beads were washed three times with 1 mL of ice-cold cell lysis buffer, and bound immune complexes were separated using 8% SDS-PAGE, followed by immunoblotting using the indicated primary antibody.

SH-SY5Y cells [2] = experiment: Western blot of acetyl-α-tubulin and acetyl-histone, SH-SY5Y cells; assay type: cell-based, human; conditions: 0.1 to 1 μM, 24 h
Procedure: as §1, §2

Neuro-2a cells [3] = experiment: Western blot of tau phosphorylation and kinases in Neuro-2a cells transfected with pCAX APP 695 and pRK5-EGFP-Tau P301L; assay type: cell-based, mouse; conditions: Neuro-2a transfected, MG132 1 μM 30 min before MPT0G211 0.1 μM 24 h
Procedure: (§3) Images represented magnification at ×100. b Cells were transfected with pCAX APP 695 for 24 h, harvested, and cell lysates were subjected to Western blotting. c, d SH-SY5Y and Neuro-2a cells were transfected with pCAX APP 695 and/or pRK5-EGFP-Tau P301L for 24 h. Cell lysates were prepared for western blot analysis of the indicated proteins. e, f Cells were transfected with pCAX APP 695 and pRK5-EGFP-Tau P301L for 24 h and were then incubated with or without MPT0G211 or ACY-1215 (0.1 μM) for another 24 h. Cell lysates were subjected to western blot analysis using the indicated antibodies. Results are presented as the mean ± SEM from three independent experiments. **p < 0.01, ***p < 0.001 compared with the control group; ^#p < 0.05, ^##p < 0.01 compared with the indicated groups
(§4) Cell lysates were prepared for western blot analysis of the indicated proteins. Results are presented as the mean ± SEM. *p < 0.05, **p < 0.01, and ***p < 0.001 compared with the control group; ^#p < 0.05, ^##p < 0.01, ^###p < 0.001 compared with the indicated groups
(§5) Cells were seeded 1 day before transfection. The plasmids pCAX FLAG APP and pRK5-EGFP-Tau P301L (1 μg each) and 1 μL of TurboFect transfection reagent were mixed for 20 min at room temperature, added to the cells, and the suspensions were incubated for 24 h at 37 °C in a humidified atmosphere containing 5% CO2.
as §2

SH-SY5Y cells [4] = experiment: Western blot of tau phosphorylation and kinases in SH-SY5Y cells transfected with pCAX APP 695 and pRK5-EGFP-Tau P301L; assay type: cell-based, human; conditions: SH-SY5Y transfected, MG132 1 μM 30 min before MPT0G211 0.1 μM 24 h
Procedure: as §3, §4, §5, §2

SH-SY5Y cells [5] = experiment: Flow cytometry of sub-G1 (PI) and annexin V/PI in transfected SH-SY5Y cells; assay type: cell-based, human; conditions: hAPP + hTauP301L transfected SH-SY5Y, 0.1 μM, 24 h
Procedure: The fractionation scheme used to separate different cellular pools of tau, and the western blot analysis of the effects of the compounds on tau pools generated using the fractionation scheme are presented. b, d SH-SY5Y cells were transfected for 24 h with pCAX APP 695 and pRK5-EGFP-Tau P301L, incubated with or without MPT0G211 or ACY-1215 (0.1 μM) for another 24 h, and then the cells were fixed and stained by propidium iodide (b) or annexin V/PI double staining (d) and analyzed by flow cytometry. c, e Percentages of the subG1 phase (c) or annexin V-positive cells (e) in response to drug treatment as explained in (b). Results are presented as the mean ± SEM. *p < 0.05 and **p < 0.01 compared with the control group; ^#p < 0.05 and ^##p < 0.01 compared with the indicated groups TEXT PRINTED IN THE PICTURE: (B) MPT0G211: hAPP + hTauP301L: SubG1 10.91% | (B) ACY-1215: hAPP + hTauP301L: SubG1 15.40% | (D) MPT0G211: hAPP + hTauP301L: 9.56%; hAPP + hTauP301L: 11.26% | (D) ACY-1215: hAPP + hTauP301L: 9.28%; hAPP + hTauP301L: 11.25%
After drug treatment, the cells were collected, washed with cold phosphate-buffered saline (PBS), and fixed with 75% alcohol overnight at −20 °C. After centrifugation, the fixed cells were washed with cold PBS and resuspended in DNA extraction buffer (0.2 M Na2HPO4, 0.1 M citric acid, pH 7.8) for 30 min. The cells were centrifuged and incubated with propidium iodide (PI) (0.1% Triton X-100, 100 μg/mL RNase A, and 80 μg/mL PI in PBS) for 30 min. The cell cycle was analyzed using a FACScan Flow cytometer and Cell Quest software (Becton Dickinson, Mountain View, CA, USA).

[6] = Fig. 3d picture, quadrant not identified

Structure (SMILES) | acetylation of histones (Neuro-2a cells [1]) | acetylation of α-tubulin (Neuro-2a cells [1]) | acetylation of histones (SH-SY5Y cells [2]) | acetylation of α-tubulin (SH-SY5Y cells [2]) | effect on MPT0G211-induced inhibition of p-tau at Ser396 (Neuro-2a cells [3]) | effect on MPT0G211-induced inhibition of p-tau at Ser396 (SH-SY5Y cells [4]) | SubG1 population (SH-SY5Y cells [5]; PI staining, Fig. 3b picture) [%] | annexin V/PI double staining, quadrant percentage (SH-SY5Y cells [5]; [6]) [%] | annexin V/PI double staining, quadrant percentage (first value) (SH-SY5Y cells [5]; [6]) [%]
O=C(CCCCCCC(=O)Nc1ccccc1)NO [SAHA] | significantly increased | significantly increased | significantly increased | significantly increased | – | – | – | – | –
CC(C)C[C@@H](C=O)NC(=O)[C@H](CC(C)C)NC(=O)[C@H](CC(C)C)NC(=O)OCc1ccccc1 [MG132, reference compound] (Cbz-Leu-Leu-Leu-aldehyde) | – | – | – | – | significantly reversed | significantly reversed | – | – | –
O=C(CCCCCCNC(=O)c1cnc(N(c2ccccc2)c2ccccc2)nc1)NO [ACY-1215, reference compound] | – | less acetylation of α-tubulin | – | less acetylation of α-tubulin | – | – | 15.40 | 11.25 | 9.28
